For series [1], the system named is CD4+ T cells. The experiment in a line: Example 5: cytokines release assay (V-PLEX pro-inflammatory panel). It counts as cell-based, human. The note with it: 48 hours; culture supernatant of CD4+ T cells. How it is done: Supernatant was collected from the treated cell cultures described above and stored at −80° C. for later analysis. Supernatant cytokine levels were determined using a V-PLEX Proinflammatory Panel 1 (human) Kit (#K15049D-1) and a V-PLEX IL-17A Gen. B (human) (#K151WMD) from Meso Scale Discovery, following the manufacturer's protocol. The assay was done on undiluted supernatant samples in order to increase the sensitivity of the assay.

The subject of series [2] is AKT/mTOR pathway in CD4+ T cells. The series is described as follows: Example 5: RNA and protein expression profiling with nanoString. The class given is cell-based, human. The following applies: 1 μM. How it is done: Quantitative RNA and protein expression data were generated using the nCounter Vantage 3D Solid Tumor Assay and the nCounter SPRINT profiler (NanoString Technologies), comprising 770 RNA and 30 protein targets including positive and negative controls. 1-3 million negatively selected primary CD4^+ T cells purified from HIV-positive donors on suppressive ART, as described above, were treated with 1 μM tideglusib or left untreated (DMSO control). […]. For RNA samples, an additional RNA purification step (Qiagen miRNeasy Mini Kit) was necessary to ensure an appropriate sample input for the nCounter assay. A total of at least 30 ng RNA was used for each sample. Otherwise, samples were processed according to the manufacturer's instructions. RNA and protein expression values were normalized and analyzed using the nSolver Analysis Software 4.0 and the add-on Advanced Analysis Software 2.0.115 (NanoString Technologies). Normalization genes for each sample were automatically selected by the software based on the geNorm algorithm (ref vandesompele). Biological replicates were then grouped according to treatment and the differential expression of each analyte-type (RNA or protein target) was determined in comparison to the untreated condition by considering inter-donor differences as confounding variables. Based on the differential expression of each gene, pre-defined gene sets by nanoString, representing different pathways included in this assay, were analyzed by calculating global significance scores for each gene set within each treatment, as follows: […]

The test system is the same in series [3]. The series is described as follows: Example 5: phosphoproteomics (mass spectrometry) and GO enrichment analysis. The class given is cell-based, human. The note with it: 1 μM; 15 minutes. How it is done:
Cells were lysed in a buffer containing 8M urea, 100 mM Tris pH 8.0, 150 mM NaCl, and protease inhibitors (Roche Complete tablet). Lysates were reduced with 4 mM TCEP for 30 minutes at room temperature and alkylated with 10 mM iodoacetamide for 30 minutes at room temperature in the dark. Samples were diluted 1:4 in 100 mM Tris pH 8.0 to reduce urea concentration to 2M and digested with trypsin (1:100 enzyme:substrate ratio) overnight at 37 degrees Celsius. Peptides were desalted with SepPak C 18 solid phase extraction (Waters) according the manufacturer's specifications and lyophilized to dryness. Phosphopeptides were purified using an immobilized metal affinity chromatography approach.
Samples were analyzed on a Thermo Scientific LTQ Orbitrap Elite MS system equipped with an Easy nLC-1000 HPLC and autosampler system that is capable of maintaining back pressures of up to 10,000 psi for high resolution chromatographic separations. The HPLC interfaces with the MS system via a nanoelectrospray source.
Samples were injected onto a C18 reverse phase capillary column (75 um inner diameter×25 cm length, packed with 1.9 um C18 particles). Peptides were then separated by an organic gradient from 5% to 30% ACN in 0.1% formic acid over 180 minutes at a flow rate of 300 nl/min. The MS continuously collected spectra in a data-dependent fashion over the entire gradient.
Raw mass spectrometry data were analyzed using the MaxQuant software package (version 1.3.0.5). Data were matched to the SwissProt human reference sequence database. MaxQuant was configured to generate and search against a reverse sequence database for false discovery rate calculations. […] For MS/MS matching, a mass tolerance of 0.5 Da was allowed and the top 6 peaks per 100 Da were analyzed. […]
The MaxQuant-analyzed data were subsequently analyzed using an in-house computational pipeline for statistical analysis of relative quantification with fixed and/or mixed effect models, implemented in the MSstats Bioconductor package (version 3.3.10). […]

The test system of series [4] is NF-κB (p65). The experiment in a line: Example 5: NF-κB (p65) binding with target DNA sequences, ELISA. It counts as cell-based, human. The following applies: 1 μM.
Experimental: To determine the specific NF-κB p65 DNA binding activity of treated CD4^+ T cells, an aliquot of the same nuclear extracts used for the p65/TBP western blots were submitted to the Transcription Factor Assay kit (Abcam, catalogue no. ab133112). Following the manufactures instructions sequentially, nuclear extracts were incubated in the TFA 96 well plate coated with double strand DNA NF-κB oligos. The wells were washed then incubated with primary anti-p65 antibody that is then detected by incubation with HRP conjugated secondary antibody. Developing reagents are added and absorbance is read at 450 nm. The level of absorbance indicates the DNA binding activity. For each donor experiment, binding specificity controls include a NF-κB competitor dsDNA control well and a non-specific binding control well. The assay was performed on 3 different donor samples.
Series [5] concerns CD4+ T cells. The series is described as follows: Example 5: GLUT1 surface expression, flow cytometry. It counts as cell-based, human. The note with it: 2 or 24 hours; 1 μM tideglusib; CD4+ T cells of three HIV-negative donors. How it is done:
Freshly isolated PBMCs or CD4^+ T cells were stained for viability, using the fixable viability dye Zombie violet (1:50, Biolegend) according to the manufacturer's recommendation. Surface staining was performed with the following antibodies at 1:100 dilutions: CD3-PE-Cy7, CD4-APC-Cy7, CD69-FITC, CD25-PE (all 1:100, Biolegend), and Glut-1-Ax647 (BD Bioscience, 566580) in staining buffer for 20 min on ice and cells were fixed in 1% PFA-containing PBS. All flow analysis was performed on the LSRII (BD Biosciences) using FlowJo software (v.10.4.2). Color compensations were performed using single-stained samples for each of the fluorochromes used. Data were analyzed using FlowJo software (TreeStar, San Carlos, Calif.).
Changes to the metabolism of resting CD4^+ T-cells by tideglusib were studied. […] […].

In series [6] the test system is primary CD4+ T cells isolated from fresh human tonsils. The experiment in a line: CD69 transcripts in primary CD4+ T cells from fresh human tonsils. It counts as cell-based. The note with it: 2-day treatment.

One compound from US11590110B2, “Compositions and methods for reactivating latent immunodeficiency virus using a GSK-3 inhibitor” (priority 2017, dated 2023) can be followed below.

Each structure is given as a SMILES string.

Take `O=c1sn(-c2cccc3ccccc23)c(=O)n1Cc1ccccc1` [Tideglusib, 4-benzyl-2-(naphthalen-1-yl)-1,2,4-thiadiazolidine-3,5-dione]: the “production and release of pro-inflammatory cytokines” value in series [1] is given as “does not induce T cell activation or cytokine production”. For the same compound, the “activation of the AKT/mTOR pathway (phosphorylation of GSK-3β, AKT and TSC2)” value in series [2] (15 minutes post-treatment) was “non-significant activation”. For the same compound, in series [2] (1 hour), the “activating phosphorylation of p70S6K on T389” value is “significant phosphorylation values” and the “inhibiting phosphorylation of GSK-3β on S9” value is given as “significant phosphorylation values”. Besides, in series [2] (6 hours), the “inhibiting phosphorylation of TSC2 on T1426” value is given as “statistically-relevant phosphorylation” and the “phosphorylation of AKT on S473” value was “statistically-relevant phosphorylation”. The “overall transcriptome changes, pathways (700 transcripts)” value in series [2] (after 1 and 6 hours) is “activation of the mitogen-activated protein kinase (MAPK), PI3K, Ras, Wnt and TGFβ pathways and deactivation of the Hedgehog, Notch and Janus kinases (JAK) and signal transducer and activator of transcription proteins (STAT)-pathways”. Further, in series [3], the “GO enrichment analysis of treated vs untreated phosphoproteomics results” value was “activation of TCR signaling (data not shown), together with overall spliceosome complex activity, transcription activation, mRNA processing and EGFR signaling”; the “phosphoproteomics: GSK-3β and TSC2” value was “confirmed inhibition of GSK-3β and TSC2”; the “phosphoproteomics: Rictor” value was “revealed phosphorylation of Rictor on T1295”. For the same compound, the p65/DNA binding result in series [4] is on record as “time-dependent increase”. The “GLUT1 surface expression over the untreated control” value in series [5] is “did not increase GLUT1 surface expression”. Also, the “expression of CD69 transcripts” value in series [6] is listed as “reduces expression of CD69 transcripts”.
